From ChEMBL document CHEMBL1201862, “PubChem BioAssay data set” (2004) come the findings set out here.

Among the test systems are 786-0; A549; CAKI-1; CCRF-CEM; HL-60; IGROV-1; KM12; NCI-H226; NCI-H460; RPMI-8226; SF-268; SF-539; SK-MEL-5; SNB-19; SR; SW-620; TK-10.
Holding throughout (experiment): NCI-60 cell line screen, 48 h

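Growth conditions: 96-well plates. Treatment: test compound, 48 hours, 5 concentrations. Analysis: linear interpolation between bracketing concentrations; unreached endpoints set to highest concentration. Abbreviation: GI50, concentration required for 50% inhibition of growth.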 Activity calls are given as the source filed them. Cut-off read from the data, not from the text of the source: active = GI50 up to about 1.1 µM and inactive = higher. Bounds are passed on as bounds.

As to `CCC(=C(c1ccc(OCc2ccccc2)cc1)c1ccc(OCc2ccccc2)cc1)c1ccc(OC)cc1`, the GI50 with 786-0, in the assay on A549, in the assay on CAKI-1, in the assay on CCRF-CEM, in the assay with HL-60 and in the assay with IGROV-1 was > 100 µM (inactive) in each case. In addition, the GI50 in the assay on KM12, in the assay on NCI-H226, in the assay with NCI-H460, in the assay with RPMI-8226, in the assay on SF-268 and in the assay with SF-539 was > 100 µM (inactive) throughout. Also, the GI50 in the assay on SK-MEL-5, in the assay on SNB-19, in the assay on SR, in the assay on SW-620 and in the assay on TK-10 was > 100 µM (inactive) each time.
For `CC(C)=CC1C[C@H](C2CC=C3C2(C)CCC2[C@@]3(C)C(=O)CC3[C@]2(C)C=CC(=O)[C@]3(C)CO)CO1` (stereo partly drawn), the GI50 is 5.96 µM (inactive) with 786-0; 20.8 µM (inactive) with A549; 23.9 µM (inactive) in the assay with CAKI-1; 2.96 µM (inactive) in the assay with CCRF-CEM; 2.92 µM (inactive) in the assay with HL-60; 13.6 µM (inactive) with IGROV-1. Besides, the GI50 in the assay on KM12 was 5.92 µM (inactive); in the assay with NCI-H460, 11.6 µM (inactive); with RPMI-8226, 3.15 µM (inactive); with SF-268 it was 5.82 µM (inactive); in the assay with SF-539 it was 4.57 µM (inactive); in the assay with SK-MEL-5, 10 µM (inactive). Moreover, the GI50 was 19 µM (inactive) in the assay with SNB-19, 3.02 µM (inactive) in the assay on SR, 4.28 µM (inactive) in the assay on SW-620 and 25.8 µM (inactive) with TK-10.
As for `Cn1cnc2nc(Cl)nc(NC(C)(C)C(C)(C)O)c21`, the GI50 with 786-0, with A549, with CAKI-1, with CCRF-CEM, in the assay with HL-60 and in the assay on IGROV-1 was > 100 µM (inactive) throughout. The GI50 with KM12, in the assay with NCI-H226, in the assay with NCI-H460, in the assay with RPMI-8226, in the assay on SF-268 and in the assay on SF-539 was > 100 µM (inactive) each time. For the same compound, the GI50 in the assay on SK-MEL-5, with SNB-19, in the assay with SR, with SW-620 and in the assay on TK-10 was > 100 µM (inactive) throughout.
Regarding `COc1ccc(CN[C@H]2CCc3cc(OC)c(OC)c(OC)c3-c3ccc(SC)c(=O)cc32)c(OC)c1OC`, the GI50 was 0.037 µM (active) in the assay with 786-0; 0.0459 µM (active) in the assay on A549; 0.0452 µM (active) in the assay on CAKI-1; 0.0356 µM (active) with CCRF-CEM; 0.0266 µM (active) in the assay with HL-60; 0.135 µM (active) in the assay with IGROV-1. The GI50 with KM12 was 0.0308 µM (active); in the assay on NCI-H226, 0.0237 µM (active); with NCI-H460 it was 0.026 µM (active); with RPMI-8226, 0.0352 µM (active); in the assay with SF-268 it was 0.0366 µM (active); in the assay on SF-539 it was 0.0211 µM (active). Besides, the GI50 in the assay on SK-MEL-5 was 0.0326 µM (active); in the assay with SNB-19 it was 0.0658 µM (active); in the assay with SR it was 0.0167 µM (active); in the assay on SW-620, 0.0416 µM (active); in the assay on TK-10, 0.0849 µM (active).
In the case of `CCN(CC)CCN1CCc2c([nH]c3ccccc23)C1c1cccnc1` (stereo not drawn), the GI50 was > 100 µM (inactive) in the assay on 786-0; > 100 µM (inactive) in the assay on A549; > 100 µM (inactive) with CAKI-1; 94.6 µM (inactive) with CCRF-CEM; 99.3 µM (inactive) in the assay on HL-60; > 100 µM (inactive) in the assay on IGROV-1. The GI50 in the assay on KM12, with NCI-H460, with RPMI-8226, in the assay on SF-268, with SF-539 and in the assay with SK-MEL-5 was > 100 µM (inactive) in each case. The GI50 with SNB-19, in the assay with SR, in the assay with SW-620 and in the assay with TK-10 was > 100 µM (inactive) in each case.
Regarding `O=c1c2cccc3cccc(c4oc5c6cccc7cccc(c(=O)c5c14)c76)c32`, the GI50 in the assay with 786-0 is 11.2 µM (inactive); with A549, 2.06 µM (inactive); with CAKI-1 it was 15.8 µM (inactive); with CCRF-CEM, 5.47 µM (inactive); with HL-60, 9.18 µM (inactive); with IGROV-1, 16.9 µM (inactive). The GI50 was 13.8 µM (inactive) with KM12; 17 µM (inactive) in the assay with NCI-H226; 12.5 µM (inactive) in the assay on NCI-H460; 12.8 µM (inactive) with RPMI-8226; 13 µM (inactive) in the assay on SF-268; 15.8 µM (inactive) with SF-539. In addition, the GI50 with SK-MEL-5 was 15.2 µM (inactive); in the assay with SNB-19, 11.6 µM (inactive); in the assay with SR, 7.66 µM (inactive); in the assay with SW-620, 11.8 µM (inactive); with TK-10, 11.6 µM (inactive).
In the case of `COc1cc2c(cc1OC)CC(=O)Nc1cc(OC)c(OC)cc1CC2`, the GI50 is 49.2 µM (inactive) with 786-0; 63 µM (inactive) in the assay with A549; 68.2 µM (inactive) with CAKI-1; 51.2 µM (inactive) with CCRF-CEM; 20.8 µM (inactive) in the assay on HL-60; > 85.9 µM (inactive) in the assay on IGROV-1. Moreover, the GI50 is 43.6 µM (inactive) in the assay with KM12; 79.1 µM (inactive) in the assay on NCI-H226; 39.3 µM (inactive) in the assay with NCI-H460; 2.89 µM (inactive) in the assay with RPMI-8226; 80.9 µM (inactive) in the assay with SF-268; 33.2 µM (inactive) with SF-539. The GI50 in the assay with SK-MEL-5 was 18.5 µM (inactive); in the assay with SNB-19, 99.8 µM (inactive); in the assay with SR, 5.74 µM (inactive); in the assay on SW-620, 47.9 µM (inactive); in the assay on TK-10 it was > 77.4 µM (inactive).
`O=CC1CCC=CC1NC(=O)OCc1ccccc1` (stereo not drawn): the GI50 with 786-0 was 33.8 µM (inactive); with A549, > 100 µM (inactive); with CAKI-1, 34.4 µM (inactive); in the assay with CCRF-CEM, 25.9 µM (inactive); in the assay on HL-60 it was 7.14 µM (inactive); in the assay on IGROV-1, > 100 µM (inactive). Moreover, the GI50 with KM12 was 47 µM (inactive); with NCI-H226, > 100 µM (inactive); in the assay on NCI-H460 it was 59.3 µM (inactive); with RPMI-8226, 40.5 µM (inactive); in the assay on SF-268, 85.5 µM (inactive); in the assay on SF-539 it was 23 µM (inactive). Also, the GI50 in the assay with SK-MEL-5 was 51.9 µM (inactive); in the assay on SR, 30.7 µM (inactive); with SW-620, 37.2 µM (inactive); in the assay with TK-10 it was 53.3 µM (inactive).
`O=C1Nc2ccccc2N/C1=C\C(=O)c1ccccc1O`: the GI50 in the assay on 786-0, in the assay with A549, with CAKI-1, in the assay on CCRF-CEM, in the assay on HL-60 and in the assay on IGROV-1 was > 100 µM (inactive) each time. Moreover, the GI50 in the assay with KM12, in the assay with NCI-H226, in the assay with NCI-H460, in the assay on RPMI-8226, in the assay with SF-268 and with SK-MEL-5 was > 100 µM (inactive) in each case. In addition, the GI50 with SNB-19, in the assay on SR, in the assay on SW-620 and with TK-10 was > 100 µM (inactive) in each case.
In the case of `CCCCCCCCC(O)C#CC(N)=O` (stereo not drawn), the GI50 with 786-0 was 12.7 µM (inactive); with A549, 14.7 µM (inactive); with CAKI-1, 8.67 µM (inactive); in the assay with CCRF-CEM, 15.5 µM (inactive); in the assay on HL-60, 10.8 µM (inactive); with NCI-H226, 10.8 µM (inactive). For the same compound, the GI50 with NCI-H460 was 9.1 µM (inactive); in the assay with RPMI-8226 it was 7.48 µM (inactive); in the assay with SF-539, 12.5 µM (inactive); with SK-MEL-5 it was 12 µM (inactive); with SNB-19 it was 11.8 µM (inactive); in the assay on SR it was 12.9 µM (inactive). In addition, the results for the GI50 with SW-620 and in the assay with TK-10 were 14.1 µM (inactive) and 16 µM (inactive), respectively.
Consider `CC12OC3(O)C4C5CC(C6C5C3C61)C42` (stereo not drawn), for which the GI50 in the assay on 786-0 is 38.3 µM (inactive); with A549, > 100 µM (inactive); in the assay on CAKI-1, > 100 µM (inactive); in the assay on CCRF-CEM, > 100 µM (inactive); in the assay with HL-60 it was > 100 µM (inactive); in the assay on KM12, > 100 µM (inactive). Also, the GI50 in the assay with NCI-H226, with RPMI-8226, in the assay on SF-268, with SF-539, in the assay with SNB-19 and with SR was > 100 µM (inactive) each time. In addition, the GI50 with SW-620 and with TK-10 was > 100 µM (inactive) throughout.
Turning to `COc1ccc(C2=Nc3ccccc3N=C(SC)C2)cc1`, the GI50 is 38.6 µM (inactive) with 786-0; 95.1 µM (inactive) with A549; 46.8 µM (inactive) in the assay on CAKI-1; 13.2 µM (inactive) in the assay on CCRF-CEM; 16.3 µM (inactive) with HL-60; > 100 µM (inactive) in the assay on IGROV-1. Besides, the GI50 in the assay on KM12 is 27.5 µM (inactive); in the assay with NCI-H226, > 100 µM (inactive); in the assay with NCI-H460, 24.5 µM (inactive); with SF-268, > 100 µM (inactive); in the assay on SF-539, > 100 µM (inactive); in the assay on SK-MEL-5 it was 39.8 µM (inactive). The GI50 in the assay with SNB-19 was > 100 µM (inactive); in the assay with SR, 25.3 µM (inactive); with SW-620 it was 16.9 µM (inactive); with TK-10, 40.7 µM (inactive).
